For data set [1], the system named is human cytomegalovirus (HCMV). The format is cell-based.
Data set [2] concerns host cells.
Procedure: The toxicity of the diverse ACC inhibitors on host cells was determined by visual inspection of cell lawns and neutral red viability assay.
In data set [3] the test system is HBV. To be noted: cited from earlier work.
In data set [4] the test system is HCV replicon. As to conditions: cited from earlier work.
The subject of data set [5] is host cell. Nature of the data set: Host cell toxicity of the TOFA and indomethacin combination (neutral red dye assay). To be noted: combined use of TOFA and indomethacin.
Procedure: (§2) A non-limiting example of an assay that can be performed to assess the effect of a combination of an ACC inhibitor plus Cox inhibitor on HCMV replication follows. […] In each assay, various concentrations of TOFA can be combined with various concentrations of indomethacin and assayed for their effect on virus replication. In one preferred embodiment, a physiological concentration of indomethacin is held constant as the dose of TOFA is increased. Control cultures are treated with no drug, indomethacin alone or the various concentrations of TOFA alone. […] The antiviral effect of indomethacin plus each concentration of TOFA is then compared to the activity of indomethacin alone or the various concentrations of TOFA alone.
For data set [6], the system named is HCV RNA replicon. Nature of the data set: HCV RNA replicon luciferase (LUC) reporter assay in Huh7 ET cells.
Data set [7] deals with hepatitis B virus (HBV) ayw strain. Nature of the data set: Extracellular HBV DNA from HepG2-2.2.15 cells, real-time quantitative PCR.
Procedure: In one aspect, Compounds can be added to HepG2-2.2.15 culture to test whether Compound will reduce the production of secreted HBV from cells utilizing real time quantitative PCR (TaqMan) assay to measure HBV DNA copies. Specifically, confluent cultures of HepG2-2.2.15 cells cultured on 96-well flat-bottomed tissue culture plates and are treated with various concentration of daily doses of Compounds. HBV virion DNA in the culture medium can be assessed 24 hours after the last treatment by quantitative blot hybridization or real time quantitative PCR (TaqMan) assay. […] Lamivudine (3TC) can be used as a positive assay control.
As noted in section 5.4, HepG2-2.2.15 (Sells et al., PNAS 84, 1005-9, 1987) is a stable cell line containing the HBV ayw strain genome. Compounds blocking any step of viral replication and release can be assayed in these cells (Korba & Milman, Antiviral Res. 15:217-28, 1991). […] The medium with the ACC inhibitor is replaced every 24 hours, and media samples are removed after drug treatment for 24, 48, 72 or 96 hours and assayed for the presence of extracellular viral DNA by real-time quantitative PCR. A reduction in the amount extracellular viral DNA or a delay in its accumulation during the treatment period with the ACC inhibitor is indicative of anti-HBV activity. […] Lamivudine (3TC) is used as a positive assay control for inhibition of the production of extracellular HBV DNA (Korba & Gerin, Antivir. Res. 19:55-70, 1992).
For data set [8] the following is noted: cited from earlier work.
Data set [9] concerns coxsackie B3 virus. As to conditions: cited from earlier work.
Data set [10] deals with HCMV, influenza A, HIV-1, HBV or HCV. Nature of the data set: Viral replication with a combination of ACC inhibitor and HMG-CoA reductase inhibitor. The format is cell-based. As to conditions: in the presence of a therapeutically effective concentration of the active form of lovastatin.
In data set [11] the test system is HCMV-infected fibroblasts (MRC-5 cells). Description: Effect on the metabolome of HCMV-infected fibroblasts (LC-MS/MS). The format is cell-based, human. To be noted: TOFA 20 μg/mL for 48 h. As for the experimental part: Primary fibroblasts (MRC-5 cells) were grown in DMEM (high glucose) containing 7.5% FBS and infected at a multiplicity of 3.0 plaque forming units per cell (control cells were mock infected instead of virally infected). […] Mock-infected cells were then returned to growth medium (+DMSO vehicle) for 48 h. […] Metabolites were extracted into the methanol:water and samples analyzed by LC-MS/MS for a diversity of metabolites as described herein.

The test system of data set [12] is HCMV. To be noted: TOFA 10 μg/mL.
Procedure: as §2
The test system of data set [13] is West Nile virus (WNV). Description: Extracellular viral RNA from WNV-infected Vero cells, real-time quantitative RT-PCR. It counts as cell-based. As to conditions: TOFA 20 μg/mL. On the procedure:
(§1) WNV and DV, members of the Flavivirus family of positive-strand RNA viruses, cause severe disease in humans. […] A reduction in the amount extracellular viral RNA or a delay in the accumulation of extracellular viral RNA during the drug treatment period will be indicative of anti-WNV or anti-DV activity. […] TOFA at 20 μg/mL results in ˜10-fold reduction, sometime greater, in accumulation of extracellular viral RNA. The accumulation of extracellular viral RNA is also delay compared to untreated cells.

Data set [14] has as its system Dengue virus (DV). Nature of the data set: Extracellular viral RNA from DV-infected Vero cells, real-time quantitative RT-PCR. The format is cell-based. To be noted: TOFA 20 μg/mL. On the procedure: as §1
In data set [15] the test system is Huh7 ET cells. Nature of the data set: Toxicity in Huh7 ET cultures (neutral red dye uptake). As to conditions: TOFA 10 μg/mL or 30 μg/mL.
Data set [16] concerns the target class III PI(3)K (Homo sapiens, UniProt Q8NEB9). As to conditions: cited from earlier work.
The mark [17] stands for this setting: dose 30 μg/mL, MOI 3.0, 72 hours post infection, two independent experiments, each with its own controls.
Setting [18] is: dose 60 μg/mL, MOI 3.0, 72 hours post infection.

Data on five compounds can be found in patent US9029413B2, “Treatment of viral infections by modulation of host cell metabolic pathways” (The Trustees of Princeton University, priority 2007, dated 2015).

Entries after “also recorded” stand apart in the source; their conditions may differ. Read-outs that look alike come from different tables or passages of the source.

Sequence of class III PI(3)K (Q8NEB9 whole entry): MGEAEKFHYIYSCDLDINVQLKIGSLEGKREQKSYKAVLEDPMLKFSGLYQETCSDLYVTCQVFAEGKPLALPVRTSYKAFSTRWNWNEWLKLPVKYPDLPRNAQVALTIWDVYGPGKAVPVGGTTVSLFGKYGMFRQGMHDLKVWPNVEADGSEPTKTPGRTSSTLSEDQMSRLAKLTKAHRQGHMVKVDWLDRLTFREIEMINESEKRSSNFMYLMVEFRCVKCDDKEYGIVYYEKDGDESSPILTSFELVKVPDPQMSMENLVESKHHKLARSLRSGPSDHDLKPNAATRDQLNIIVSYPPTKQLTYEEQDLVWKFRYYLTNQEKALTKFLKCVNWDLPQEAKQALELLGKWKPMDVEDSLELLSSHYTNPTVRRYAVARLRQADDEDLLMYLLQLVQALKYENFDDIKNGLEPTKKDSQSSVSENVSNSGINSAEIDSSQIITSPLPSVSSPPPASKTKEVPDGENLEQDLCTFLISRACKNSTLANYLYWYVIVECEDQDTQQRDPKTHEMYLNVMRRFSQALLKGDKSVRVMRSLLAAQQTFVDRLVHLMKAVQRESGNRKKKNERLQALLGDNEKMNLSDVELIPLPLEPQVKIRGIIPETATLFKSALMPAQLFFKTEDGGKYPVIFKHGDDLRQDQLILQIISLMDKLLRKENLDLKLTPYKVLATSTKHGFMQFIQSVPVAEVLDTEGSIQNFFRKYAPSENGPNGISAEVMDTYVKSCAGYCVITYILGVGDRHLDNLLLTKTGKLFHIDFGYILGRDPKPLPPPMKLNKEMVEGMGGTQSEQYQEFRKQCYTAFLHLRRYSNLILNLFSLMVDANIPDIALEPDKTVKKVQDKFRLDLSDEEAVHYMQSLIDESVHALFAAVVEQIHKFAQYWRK

With `O=C(c1c2ccccc2cc2ccccc12)N1CCC(N2CCC[C@@H](C(=O)N3CCOCC3)C2)CC1` [CP-640186], the “inhibition of HCMV replication” value in data set [1] (as stated in the text for FIGS. 18 and 19, dose not given) is recorded as “approximately 50 fold”. In data set [1] (setting [17]), the “Fold inhibition of viral replication” value came out at 89.6 fold and the Viral yield was determined as 16000 pfu/mL. In data set [2], the “toxicity on host cells by neutral red viability assay” value is “indistinguishable from DMSO control”.

As to `CCOC(=O)C1(CCCCCCOc2ccc(Cl)cc2)CO1` (stereo not drawn) [Etomoxir], in data set [1] (Etomoxir 5 μM, AD169, multiplicity of infection 1.0, harvested 96 hours post infection), the “reduction of HCMV viral replication” value was “more than 1 log”.

`CC[C@H](C)C(=O)O[C@H]1C[C@@H](C)C=C2C=C[C@H](C)[C@H](CC[C@@H]3C[C@@H](O)CC(=O)O3)[C@H]21` [Lovastatin, lovastatin]: in data set [3], the “production of infectious HBV particles” value is listed as “does not block production of infectious HBV particles” and the “secretion of HBV surface antigen, HBsAg” value was “inhibits secretion of the HBV surface antigen”. For the same compound, the “inhibition of replication of HCV replicons” value in [4] (Huh-7 cells) is recorded as “partially inhibit”.

In the case of `CCCCCCCCCCCCCCOc1ccc(C(=O)O)o1` [TOFA, 5-(tetradecyloxy)-2-furoic acid], the “host cell toxicity by neutral red dye assay” value in data set [5] was “does not increase host cell toxicity”. The “reduction in LUC activity” value in data set [6] (TOFA 10 μg/mL) is roughly 10 fold; in data set [6] (TOFA 30 μg/mL, in some experiments), no less than 100 fold. Moreover, in [7] (TOFA 3 μg/mL), the “reduction in extracellular HBV DNA” value is “small but statistically significant reduction”. Moreover, in [7] (TOFA 10 μg/mL (range ~3 to ~30-fold)), the “reduction in production of extracellular HBV DNA” value is on record as roughly 10 fold. In addition, the “impairment of production of extracellular HBV DNA” value in data set [7] (TOFA 30 μg/mL, greater than 100-fold in some cases) is recorded as “greater than 10 fold”. Further, in data set [8] (rat, in vivo, 100 mg/kg/day), the adverse effects entry is listed as “no adverse effects are observed”. The teratogenicity result in data set [8] (rat, in vivo, 150 mg/kg/day) is recorded as “not teratogenic”. Besides, the “oral LD50” value in data set [8] (rats, oral) is recorded as “greater than 5,000 mg/kg”. Besides, the “sensitivity of coxsackie B3 virus” value in [9] is reported as “insensitive”. For the same compound, in data set [10], the “reduction of the TOFA concentration required to reduce viral growth and/or replication by 10-fold” value is reported as no less than 2 fold. For the same compound, in [11], the “NADP+ levels in HCMV-infected cells” value was “falling with TOFA treatment”. Further, the “citrate concentration in HCMV-infected cells” value in [11] is reported as “yet greater increases in citrate concentration”. Also, in data set [11], the “malonyl-CoA concentration in HCMV-infected cells” value is recorded as “below the limit of detection; also recorded: blocked”. The “magnitude of the therapeutic effect on HCMV replication” value in data set [12] (absence of indomethacin) is roughly 10 fold; in data set [12] (presence of indomethacin), roughly 100 fold. Besides, the “reduction in accumulation of extracellular viral RNA (WNV)” value in data set [13] is recorded as roughly 10 fold. In addition, in [14], the “reduction in accumulation of extracellular viral RNA (DV)” value is given as roughly 10 fold. Also, the “decrease in HCMV viral replication” value in data set [1] was “roughly one”; in data set [1] (TOFA 20 μg/mL, MOI 3.0, GFP reporter virus, released virus only, 72 hours post infection), “roughly two”. For the same compound, the “Fold inhibition of viral replication” value in data set [1] (setting [17]) came to 427.6 fold; in data set [1] (setting [18]) it was 82499.0 fold. Also, the Viral yield is given as 7700 pfu/mL in [1] (setting [17]) and 40 pfu/mL in data set [1] (setting [18]). Moreover, in data set [4] (TOFA 5 microg/ml, Huh-7 cells containing an HCV replicon), the “inhibition of HCV replication” value is reported as “about 3 fold”. Moreover, the “host cell toxicity by neutral red dye” value in data set [15] is given as “absence of host cell toxicity”.

With `Cn1cnc(N)c2ncnc1-2` [3-methyladenine], the “inhibition of class III PI(3)K” value in [16] is given as “inhibits class III PI(3)K”. Further, in data set [1] (3-methyladenine 5 mM, multiplicity of 0.01 pfu/cell), the “inhibition of HCMV replication (relative infectious units in medium)” value was “has antiviral activities; also recorded: inhibits the replication of human cytomegalovirus”.
